≈ marks a conversion by molar mass, not a printed value.
Assays:
Vero = assay: Cytotoxicity against african green monkey Vero cells after 72 hrs by MTT assay; type: cell-based; details: Chlorocebus sabaeus
[1] = test system: Mycobacterium tuberculosis; assay: Antitubercular activity against Mycobacterium tuberculosis H37Rv by BacTiter-Gl Microbial Cell Viability assay; type: functional, organism-based
[2] = test system: Mycobacterium tuberculosis; assay: Antitubercular activity against Mycobacterium tuberculosis H37Rv by microdilution alamar Blue broth assay; type: functional, organism-based
[3] = test system: Mycobacterium tuberculosis; assay: Ratio of pyrimethamine MIC to compound MIC for Mycobacterium tuberculosis H37Rv by BacTiter-Gl Microbial Cell Viability assay; type: functional
[4] = test system: Mycobacterium tuberculosis; assay: Ratio of pyrimethamine EC90 to compound EC90 for Mycobacterium tuberculosis H37Rv by BacTiter-Gl Microbial Cell Viability assay; type: functional
[5] = test system: Mycobacterium tuberculosis; assay: Ratio of pyrimethamine EC50 to compound EC50 for Mycobacterium tuberculosis H37Rv by BacTiter-Gl Microbial Cell Viability assay; type: functional
[6] = test system: Mycobacterium tuberculosis; assay: Ratio of cycloserine MIC to compound MIC for Mycobacterium tuberculosis H37Rv by BacTiter-Gl Microbial Cell Viability assay; type: functional
[7] = test system: Mycobacterium tuberculosis; assay: Ratio of cycloserine EC90 to compound EC90 for Mycobacterium tuberculosis H37Rv by BacTiter-Gl Microbial Cell Viability assay; type: functional
[8] = test system: Mycobacterium tuberculosis; assay: Ratio of cycloserine EC50 to compound EC50 for Mycobacterium tuberculosis H37Rv by BacTiter-Gl Microbial Cell Viability assay; type: functional

Structure (SMILES)	IC50 (Vero)	EC50 [1]	EC90 [1]	MIC [1]	EC50 [2]	EC90 [2]	MIC [2]	Ratio [3]	Ratio [4]	Ratio EC50 [5]	Ratio [6]	Ratio [7]	Ratio EC50 [8]
CN1C[C@H](c2ccc(C(F)(F)F)cc2)[C@]2(Cc3ccccc3C2=O)[C@]12C(=O)c1cccc3cccc2c13	> 62.5 µg/mL	3.21 µM	12.3 µM	50 µM (≈ 24.9 µg/mL)	23.4 µM	> 100 µM							
CN1C[C@H](c2ccccc2)[C@]2(Cc3ccccc3C2=O)[C@]12C(=O)c1cccc3cccc2c13	> 62.5 µg/mL	> 100 µM	> 100 µM		> 100 µM	> 100 µM							
NNC(=O)c1ccncc1 [ISONIAZID]	> 62.5 µg/mL	0.13 µM	0.2 µM	0.31 µM (≈ 0.0425 µg/mL)	0.19 µM	> 5 µM							
CN1C[C@H](c2ccc(OC(F)(F)F)cc2)[C@]2(Cc3ccccc3C2=O)[C@]12C(=O)c1cccc3cccc2c13	> 62.5 µg/mL	8.51 µM	26.1 µM	50 µM (≈ 25.7 µg/mL)	36.6 µM	> 100 µM							
CN1C[C@H](c2cccc3c2OCO3)[C@]2(Cc3ccccc3C2=O)[C@]12C(=O)c1cccc3cccc2c13	> 62.5 µg/mL	11.5 µM	> 100 µM	100 µM (≈ 47.4 µg/mL)	63.8 µM	> 100 µM							
CN1C[C@H](c2cncc(-c3ccc(F)cc3)c2)[C@]2(Cc3ccccc3C2=O)[C@]12C(=O)c1cccc3cccc2c13	> 62.5 µg/mL	64.5 µM	> 100 µM		> 100 µM	> 100 µM							
CC[C@@H](CO)NCCN[C@@H](CC)CO [ETHAMBUTOL]	> 62.5 µg/mL	1.5 µM	1.64 µM	6.25 µM (≈ 1.28 µg/mL)	3.45 µM	> 200 µM							
CN1C[C@H](c2ccc(C(=O)O)cc2)[C@]2(Cc3ccccc3C2=O)[C@]12C(=O)c1cccc3cccc2c13	> 62.5 µg/mL	20.7 µM	> 100 µM	100 µM (≈ 47.4 µg/mL)	69.2 µM	99.7 µM	100 µM (≈ 47.4 µg/mL)						
COc1ccc([C@H]2CN(C)[C@@]3(C(=O)c4cccc5cccc3c45)[C@@]23Cc2ccccc2C3=O)cc1	> 62.5 µg/mL	13.4 µM	62.4 µM	100 µM (≈ 46 µg/mL)	40.9 µM	> 100 µM							
CN1C[C@H](c2ccc(N3CCOCC3)cc2)[C@]2(Cc3ccccc3C2=O)[C@]12C(=O)c1cccc3cccc2c13	> 62.5 µg/mL	18.9 µM	> 100 µM		> 100 µM	> 100 µM							
N[C@@H]1CONC1=O [CYCLOSERINE]	> 62.5 µg/mL	23.6 µM	26.4 µM	100 µM (≈ 10.2 µg/mL)	24.8 µM	28 µM	100 µM (≈ 10.2 µg/mL)						
CN1C[C@H](c2cccc([N+](=O)[O-])c2)[C@]2(Cc3ccccc3C2=O)[C@]12C(=O)c1cccc3cccc2c13	> 62.5 µg/mL	10.1 µM	> 100 µM		77.5 µM	> 100 µM							
COc1ccc(OC)c([C@H]2CN(C)[C@@]3(C(=O)c4cccc5cccc3c45)[C@@]23Cc2ccccc2C3=O)c1	> 62.5 µg/mL	9.56 µM	> 100 µM		68 µM	> 100 µM							
CN1C[C@H](c2ccc(N3CCCCC3)cc2)[C@]2(Cc3ccccc3C2=O)[C@]12C(=O)c1cccc3cccc2c13	> 62.5 µg/mL	17.8 µM	> 100 µM		> 100 µM	> 100 µM							
CO[C@H]1/C=C/O[C@@]2(C)Oc3c(C)c(O)c4c(O)c(c(/C=N/N5CCN(C)CC5)c(O)c4c3C2=O)NC(=O)/C(C)=C\C=C\[C@H](C)[C@H](O)[C@@H](C)[C@@H](O)[C@@H](C)[C@H](OC(C)=O)[C@@H]1C [RIFAMPIN]	> 62.5 µg/mL	0.02 µM	0.03 µM	0.04 µM (≈ 0.0329 µg/mL)	0.02 µM	0.02 µM	0.16 µM (≈ 0.132 µg/mL)						
NCC[C@H](O)C(=O)N[C@@H]1C[C@H](N)[C@@H](O[C@H]2O[C@H](CN)[C@@H](O)[C@H](O)[C@H]2O)[C@H](O)[C@H]1O[C@H]1O[C@H](CO)[C@@H](O)[C@H](N)[C@H]1O [AMIKACIN]	> 62.5 µg/mL	0.07 µM	0.12 µM	0.16 µM (≈ 0.0937 µg/mL)	0.12 µM	0.14 µM	0.16 µM (≈ 0.0937 µg/mL)						
CN1C[C@H](c2ccc(Cl)cc2)[C@]2(Cc3ccccc3C2=O)[C@]12C(=O)c1cccc3cccc2c13	> 62.5 µg/mL	6.27 µM	29.6 µM	50 µM (≈ 23.2 µg/mL)	68.5 µM	> 100 µM							
CCc1nc(N)nc(N)c1-c1ccc(Cl)cc1 [PYRIMETHAMINE]	> 62.5 µg/mL	24.3 µM	46.4 µM	100 µM (≈ 24.9 µg/mL)	25.1 µM	28 µM	100 µM (≈ 24.9 µg/mL)						
CN(C)c1ccc([C@H]2CN(C)[C@@]3(C(=O)c4cccc5cccc3c45)[C@@]23Cc2ccccc2C3=O)cc1	> 62.5 µg/mL	9.87 µM	55.3 µM	100 µM (≈ 47.3 µg/mL)	56 µM	> 100 µM							
CN1C[C@H](c2ccc(Br)cc2)[C@]2(Cc3ccccc3C2=O)[C@]12C(=O)c1cccc3cccc2c13	> 62.5 µg/mL	2.2 µM	10.8 µM	12.5 µM (≈ 6.36 µg/mL)	15.1 µM	> 100 µM		>8	4.3	11	>8	2.45	10.7

— ChEMBL document CHEMBL2331118, “A facile three-component [3+2]-cycloaddition for the regioselective synthesis of highly functionalised dispiropyrrolidines acting as antimycobacterial agents” (Bioorg Med Chem Lett, 2013)
